Patent US8642784B2, “Biologically active compound N-[3-(4-nitrophenylamino)-indole-2-ilmethylene]aminoguanidine hydrochloride with anti-inflammatory activity” (priority 2010, dated 2014)
Counter-ions that a name gives are not always drawn. Like-named read-outs stand apart in the source and are kept apart here. Marks after values point to notes of the source that are not given here.

How the values were obtained:
[1] = system: carrageenan-induced peritonitis in mice; experiment: Carrageenan-induced peritonitis in mice, volume of exudate; format: in vivo
Procedure: Research was carried out by a method described in [5]. Experiments were performed using male mice with body mass 23-24 g, in groups of 10 animals. […] The results were processed using variation statistics methods for biological research (mean standard error, means were calculated using Student's t-distribution).

[2] = system: adjuvant arthritis in Wistar rats; experiment: Chronic arthritis (adjuvant arthritis) model in Wistar rats; format: in vivo
Procedure: Compound of formula 2 was tested in chronic arthritis (adjuvant arthritis) model in Wistar rats.
In the same dose the compound has shown a potent (better than indomethacin) chondroprotective action towards interphalangeal joints of affected leg (x-ray (röntgenography) data). In intragastric administration (analog of per os) the compound has shown systemic anti-inflammatory action (reduction of swelling, leukocytosis, TNFα level, chondroprotective action) that may be associated with the inhibition of delayed type hypersensitivity.

mice stomach [3] = format: in vivo
Procedure: (§1) Studies were performed according to the following scheme: • 1. […] Study of the compounds' ulcerogenic action using pharmaceutical dose during 7 days of administration. • 3. Aggravation of ulcerogenic effects of studied compounds by 0.6H hydrochloric acid. • 4. Aggravation of ulcerogenic effects of studied compounds by the known NSAIDs (indomethacin). 1.
(§2) Ulcerogenic effect was assessed using 4-point scale: 0—no damage; 0.5—hyperemia; 1—insignificant damage (1 or 2 small bleedings); 2—multiple damage (erosions, small bleedings); 3—significant and multiple damage (erosions, bleedings); 4—severe damage, affecting all gastric mucosa (massive bleedings, erosions, perforations).
After 7 days the animals were sacrificed by CO2, their stomachs extracted and the number of ulcers counted.
(§3) Drugs of comparison: indomethacin 20 mg/kg, voltaren—50 mg/kg and aminoguanidine—200 mg/kg. Each test group had 10 animals.

[4] = system: LPS-induced peritonitis in rats; experiment: LPS-induced peritonitis in rats, volume of exudate; format: in vivo; settings: for Anti-inflammatory activity in LPS-induced peritonitis model, % of control: rats
Procedure: Anti-exudative action was studied in male rate with body mass 170.0-180.0 g. Peritonitis was induced by intraperitoneal administration of lipopolysaccharide (LPS), produced from Escherichia coli (Sigma)—1.0 mg/kg as described in [6]: after 4 hours the animals were sacrificed by CO2, their peritoneal cavity opened and the volume of exudate was measured in ml. Studied compounds and drugs of comparison were administered per os one hour before LPS, control group was composed of rats receiving 0.3 ml of saline before LPS administration. Each group had 7 animals.
(§4) The results were processed using variation statistics methods for biological research (mean standard error, means were calculated using Student's t-distribution).

[5] = system: LPS-induced peritonitis in mice; experiment: LPS-induced peritonitis in mice, volume of exudate; format: in vivo
Procedure: Activity was studies using the methods listed in “Methodical recommendations on experimental (preclinical) research of new nonsteroidal anti-inflammatory drugs” for new compounds screening, in animal models of peritonitis induced by lipopolysaccharide (LPS) and carrageenan.
Anti-exudative action was studied in male mice with body mice 22.0-23.0 g. Peritonitis was induced by intraperitoneal administration of lipopolysaccharide (LPS), produced from Escherichia coli (Sigma) 1.0 mg/kg, as described in [6]: after 4 hours the animals were sacrificed by CO2, their peritoneal cavity opened and the volume of exudate was measured in ml. Studied compounds and drugs of comparison were administered per os one hour before LPS, control group was composed of mice receiving 0.3 ml of saline before LPS administration. Each group had 10 animals.
as §4

mice stomach [6] = experiment: Aggravation of ulcerogenic effect by indomethacin; format: in vivo
Procedure: as §1, §2
(§5) Male mice with body mass 23-24 g were deprived of food for 24 hours, water access was not limited.
Drugs of comparison: voltaren—50 mg/kg and aminoguanidine—200 mg/kg. Each test group had 10 animals.

mice stomach [7] = experiment: Aggravation of ulcerogenic effects by 0.6H hydrochloric acid; format: in vivo
Procedure: as §1, §2, §5, §3

mice stomach [8] = experiment: Irritant action on mice stomach, single administration of 500 mg/kg; format: in vivo
Procedure: Ulcerogenic effect of compound 2 was studied in accordance with Methodical recommendations on experimental (preclinical) research of new nonsteroidal anti-inflammatory drugs. Studies were performed according to the following scheme: • 1. Study of the compounds' irritant action on mice stomach using doses five-times higher than pharmacological dose (single administration). • 2. Study of the compounds' ulcerogenic action using pharmaceutical dose during 7 days of administration. • 3. Aggravation of ulcerogenic effects of studied compounds by 0.6H hydrochloric acid. • 4. Aggravation of ulcerogenic effects of studied compounds by the known NSAIDs (indomethacin). 1. Study of Irritant Action of Compound 2
Male mice with body mass 23-24 g were deprived of food for 24 hours, water access was not limited. Number of animals in a group-10.
Compound 2 in 500 mg/kg dose was administered by a tube into the stomach, after 6 hours the animals were sacrificed, their stomachs extracted, number of ulcers counted and ulcerogenic index calculated. Ulcerogenic effect was assessed using 4-point scale: 0—no damage; 0.5—hyperemia; 1—insignificant damage (1 or 2 small bleedings); 2—multiple damage (erosions, small bleedings); 3—significant and multiple damage (erosions, bleedings); 4—severe damage, affecting all gastric mucosa (massive bleedings, erosions, perforations).

[9] = Assessment of other types of pharmaceutical activity
Source text: All discovered types of pharmacological activity of compound 2 are present not only in its hydrochloride form, but also in its other pharmaceutically acceptable salts (e.g. Na, K, Ca, Mg), and also in complex combinations with pharmaceutically acceptable complexones (e.g. with glycyrrhizic acid).

male mice = experiment: Study of the compound's toxicity: mice mortality, LD50 by Karber method; format: in vivo; settings: for Animal mortality: Alive / Animal mortality: Dead: 5 mice per group, 5 days observation
Procedure: (§6) Study of the compound of formula 2 was conducted in vivo. […] To determine the doses of the compound that would need to be studied, it is first necessary to study its toxicity. Studies were carried out in male mice with body mass 18-20 g. Compound 2 was administered as a water suspension. Each dose was administered to 5 animals. Behavior and overall condition of animals were observed during 5 days. LD50 (the dose causing the death of 50% of animals) was calculated using Karber method.

[10] = as above; format: in vivo; settings: male, mouse, in vivo; oral; stated as 'may exceed'; read-out: LD50 in oral administration
Procedure: as §6

[11] = 50 mg/kg dose, compared with indomethacin

**Q.** For `N=C(N)N/N=C\c1[nH]c2ccccc2c1Nc1ccc([N+](=O)[O-])cc1` [Compound 2, N-[3-(4-nitrophenylamino)-indole-2-ilmethylene]aminoguanidine hydrochloride], which “Anti-inflammatory activity in carrageenan-induced peritonitis model, % of control” value ([1]; 25.0 mg/kg per os) is on record?
**A.** 3.9 % of control

**Q.** What about the “Anti-inflammatory activity in carrageenan-induced peritonitis model, % of control” value ([1]; 50.0 mg/kg per os) of the same molecule?
**A.** 21.6* % of control

**Q.** What about the “Anti-inflammatory activity in carrageenan-induced peritonitis model, % of control” value ([1]; 100.0 mg/kg per os) of the same molecule?
**A.** 45.1* % of control

**Q.** And the “Anti-inflammatory activity in carrageenan-induced peritonitis model, % of control” value ([1]; 200.0 mg/kg per os)?
**A.** 84.3* % of control

**Q.** And the “Chondroprotective effect (cartilage width)” value ([2]; 50 mg/kg dose)?
**A.** chondroprotective effect of compound 2 was noted

**Q.** And the “Degeneration of articular carriage of hock” value ([2]; 50 mg/kg dose)?
**A.** partially prevented the degeneration of articular carriage of hock

**Q.** And the “Development of joint sclerosis and degradation of hind leg interphalangeal joints (x-ray)” value [2, 11]?
**A.** most effective in inhibiting the development of joint sclerosis and degradation of hind leg interphalangeal joints, better than the drug of comparison

**Q.** What about the “Level of TNFα in blood plasma” value [2, 11] of the same molecule?
**A.** reduced the level of TNFα as good as the drug of comparison

**Q.** What about the “Severity of hind leg swelling” value ([2]; 50 and 75 mg/kg doses) of the same molecule?
**A.** reduced the severity of hind leg swelling

**Q.** What about the “Development of delayed type hypersensitivity” value ([2]; adjuvant arthritis, Wistar rats) of the same molecule?
**A.** inhibiting the development of delayed type hypersensitivity

**Q.** What about the Leukocytosis ([2]; adjuvant arthritis, Wistar rats, intragastric) of the same molecule?
**A.** reducing leukocytosis

**Q.** What about the “Irritant effect on gastric mucosa” value (mice stomach [3]; chronic use of 200 mg/kg doses) of the same molecule?
**A.** does not have irritant effect on gastric mucosa

**Q.** And the “Average ulcerogenic index (4-point scale) of chronic administration of pharmacological dose” value (mice stomach [3]; mice, per os 7 days, compound 2 200 mg/kg, indomethacin 20 mg/kg, voltaren 50 mg/kg, aminoguanidine 200 mg/kg)?
**A.** 0

**Q.** And the ED50 ([4]; Rattus norvegicus, po)?
**A.** 48 ± 4.5 mg/kg

**Q.** And the “Anti-inflammatory activity in LPS-induced peritonitis model, % of control” value ([4]; 10.0 mg/kg per os)?
**A.** 2.0 % of control

**Q.** What about the “Anti-inflammatory activity in LPS-induced peritonitis model, % of control” value ([4]; 25.0 mg/kg per os) of the same molecule?
**A.** 26.0* % of control

**Q.** And the “Anti-inflammatory activity in LPS-induced peritonitis model, % of control” value ([4]; 50.0 mg/kg per os)?
**A.** 58.0* % of control

**Q.** And the “Anti-inflammatory activity in LPS-induced peritonitis model, % of control” value ([4]; 75.0 mg/kg per os)?
**A.** 78.0* % of control

**Q.** What about the “Anti-inflammatory activity in LPS-induced peritonitis model, % of control” value ([4]; 100.0 mg/kg per os) of the same molecule?
**A.** 100.0* % of control

**Q.** What about the “Anti-inflammatory activity compared with voltaren and aminoguanidine” value ([4]; summary of tables 2 and 3 (mice and rat peritonitis models)) of the same molecule?
**A.** somewhat inferior to voltaren in used models, but is better than aminoguanidine

**Q.** And the “Anti-inflammatory activity in LPS-induced peritonitis model, % of control” value ([5]; 25.0 mg/kg per os)?
**A.** 2.2 % of control

**Q.** What about the “Anti-inflammatory activity in LPS-induced peritonitis model, % of control” value ([5]; 50.0 mg/kg per os) of the same molecule?
**A.** 46.7* % of control

**Q.** What about the “Anti-inflammatory activity in LPS-induced peritonitis model, % of control” value ([5]; 100.0 mg/kg per os) of the same molecule?
**A.** 88.9* % of control

**Q.** And the “Anti-inflammatory activity in LPS-induced peritonitis model, % of control” value ([5]; 200.0 mg/kg per os)?
**A.** 100.0* % of control

**Q.** What about the “Aggravation of ulceration when combined with indomethacin” value (mice stomach [6]; indomethacin in 20 mg/kg dose) of the same molecule?
**A.** does not aggravate ulceration

**Q.** What about the “Average ulcerogenic index (4-point scale) of combining the studied compounds with indomethacin” value (mice stomach [6]; mice, compound 2 100 mg/kg, voltaren 50 mg/kg, aminoguanidine 200 mg/kg, 1 hour before indomethacin 20 mg/kg, after 5 hours) of the same molecule?
**A.** 2.2

**Q.** And the “Aggravation of ulceration when combined with 0.6H hydrochloric acid” value (mice stomach [7])?
**A.** does not aggravate ulceration

**Q.** And the “Average ulcerogenic index (4-point scale) of combining the studied compounds with hydrochloric acid” value (mice stomach [7]; compound 2 100 mg/kg, indomethacin 20 mg/kg, voltaren 50 mg/kg, aminoguanidine 200 mg/kg, 1 hour before 0.6H HCl 5 ml/kg, after 4 hours)?
**A.** 0.15

**Q.** And the “Average ulcerogenic index (4-point scale) of single administration of the compounds in 500.0 mg/kg dose” value (mice stomach [8]; mice fasted 24 h, into the stomach, sacrificed after 6 hours)?
**A.** 0

**Q.** And the “Irritant effect on gastric mucosa” value (mice stomach [8]; single administration of 500 mg/kg dose)?
**A.** does not have irritant effect on gastric mucosa

**Q.** What about the “Other types of pharmaceutical activity” value [9] of the same molecule?
**A.** possesses anti-allergic, antihypoxic and analgesic activity

**Q.** What about the “Note (behavior)” value (male mice; 500.0 mg/kg intravenous) of the same molecule?
**A.** Normal behavior

**Q.** What about the “Animal mortality: Alive” value (male mice; 500.0 mg/kg intravenous) of the same molecule?
**A.** 5

**Q.** And the “Animal mortality: Dead” value (male mice; 500.0 mg/kg intravenous)?
**A.** 0

**Q.** And the “Note (behavior)” value (male mice; 1000.0 mg/kg intravenous)?
**A.** Normal behavior

**Q.** And the “Animal mortality: Alive” value (male mice; 1000.0 mg/kg intravenous)?
**A.** 5

**Q.** What about the “Animal mortality: Dead” value (male mice; 1000.0 mg/kg intravenous) of the same molecule?
**A.** 0

**Q.** And the “Note (behavior)” value (male mice; 1500.0 mg/kg intravenous)?
**A.** Normal behavior

**Q.** And the “Animal mortality: Alive” value (male mice; 1500.0 mg/kg intravenous)?
**A.** 5

**Q.** What about the “Animal mortality: Dead” value (male mice; 1500.0 mg/kg intravenous) of the same molecule?
**A.** 0

**Q.** And the “Note (behavior)” value (male mice; 2000.0 mg/kg intravenous)?
**A.** Animals depressed

**Q.** What about the “Animal mortality: Alive” value (male mice; 2000.0 mg/kg intravenous) of the same molecule?
**A.** 4

**Q.** What about the “Animal mortality: Dead” value (male mice; 2000.0 mg/kg intravenous) of the same molecule?
**A.** 1

**Q.** And the “Class of danger as specified by GOST 12.1.007-76” value (male mice; after intravenous administration up to 2000.0 mg/kg)?
**A.** third class of danger

**Q.** What about the LD50 at 5 days [10] of the same molecule?
**A.** > 5000 mg/kg
